Test results taken from PMC9151520 (Archives of Toxicology, 2022).
Several values for one entry are separate records, joined by “and”; a condition that tells them apart may be missing. Equal entries are not always repeated. Where two headings read alike, the source gives them in different places.

How the values were obtained:
[1] = tested on: p53 signaling (p53RE-bla HCT-116 cells); assay: cells; type: cell-based
[2] = tested on: p53RE-bla HCT-116 cells
[3] = tested on: p53 signaling (p53RE-bla HCT-116 cells)
[4] = tested on: p53 signaling (p53RE-bla HCT-116 cells); remark: listed apart in the source
[5] = read-out: p53 activation EC50, cherry pick confirmation
[6] = read-out: p53 activation EC50, primary screening
[7] = Homo sapiens, HCT-116, read-out: EC50, p53 activation, primary screening
[8] = Homo sapiens, HCT-116, read-out: Efficacy, p53 activation, primary screening
[9] = Homo sapiens, HCT-116, read-out: p53 activation EC50, primary screening
[10] = Homo sapiens, HCT-116, read-out: p53 activation efficacy, primary screening
[11] = Homo sapiens, HCT-116, read-out: p53 activation EC50, cherry pick confirmation
[12] = Homo sapiens, HCT-116, read-out: p53 activation efficacy, cherry pick confirmation
[13] = read-out: EC50, p53 activation, cherry pick confirmation

Compound: Cl.Nc1ccn([C@@H]2O[C@H](CO)[C@@H](O)C2(F)F)c(=O)n1
- p53 activation efficacy, cherry pick confirmation [1]: 111.507
- p53 activation efficacy, primary screening [1]: 94.321
- EC50 [1, 5]: 0.205 µM
- EC50 [1, 6]: 0.174 µM
- Viability EC50, cherry pick confirmation [2]: inactive
- Viability EC50, primary screening [2]: inactive
- Viability efficacy, cherry pick confirmation [2]: inactive
- Viability efficacy, primary screening [2]: inactive
- p53 activation EC50, cherry pick confirmation [3]: inactive
- p53 activation EC50, primary screening [3]: inactive
- p53 activation efficacy, cherry pick confirmation [3]: inactive
- p53 activation efficacy, primary screening [3]: inactive
- p53 activation EC50, cherry pick confirmation [4]: inactive
- p53 activation EC50, primary screening [4]: inactive
- p53 activation efficacy, cherry pick confirmation [4]: inactive
- p53 activation efficacy, primary screening [4]: inactive

Compound: CO.COc1cc(Nc2c(C#N)cnc3cc(OCCCN4CCN(C)CC4)c(OC)cc23)c(Cl)cc1Cl [Bosutinib methanoate]
- p53 activation efficacy, cherry pick confirmation [1]: 36.685
- p53 activation efficacy, primary screening [1]: 29.3917
- EC50 [1, 5]: 17.3 µM
- EC50 [1, 6]: 15.4 µM
- Viability EC50, cherry pick confirmation [2]: inactive
- Viability EC50, primary screening [2]: inactive
- Viability efficacy, cherry pick confirmation [2]: inactive
- Viability efficacy, primary screening [2]: inactive
- p53 activation EC50, cherry pick confirmation [3]: inactive
- p53 activation EC50, primary screening [3]: inactive
- p53 activation efficacy, cherry pick confirmation [3]: inactive
- p53 activation efficacy, primary screening [3]: inactive
- p53 activation EC50, cherry pick confirmation [4]: inactive
- p53 activation EC50, primary screening [4]: inactive
- p53 activation efficacy, cherry pick confirmation [4]: inactive
- p53 activation efficacy, primary screening [4]: inactive

Compound: CCOC(=O)NC(=S)Nc1ccccc1NC(=S)NC(=O)OCC [Thiophanate]
- EC50, p53 activation, cherry pick confirmation [1]: inactive
- Efficacy, p53 activation, cherry pick confirmation [1]: inactive
- EC50 [1, 7]: 41 µM
- Emax [1, 8]: 70.2%
- EC50, viability, cherry pick confirmation [2]: inactive
- EC50, viability, primary screening [2]: inactive
- Efficacy, viability, cherry pick confirmation [2]: inactive
- Efficacy, viability, primary screening [2]: inactive
- EC50, p53 activation, cherry pick confirmation [3]: inactive
- EC50, p53 activation, primary screening [3]: inactive
- Efficacy, p53 activation, cherry pick confirmation [3]: inactive
- Efficacy, p53 activation, primary screening [3]: inactive
- EC50, p53 activation, cherry pick confirmation [4]: inactive
- EC50, p53 activation, primary screening [4]: inactive
- Efficacy, p53 activation, cherry pick confirmation [4]: inactive
- Efficacy, p53 activation, primary screening [4]: inactive

Compound: Cn1cnc([N+](=O)[O-])c1Sc1ncnc2nc[nH]c12 [Azathioprine]
- EC50, p53 activation, cherry pick confirmation [1]: inactive
- Efficacy, p53 activation, cherry pick confirmation [1]: inactive
- EC50 [1, 7]: 33.7 µM
- Emax [1, 8]: 39.9%
- EC50, viability, cherry pick confirmation [2]: inactive
- EC50, viability, primary screening [2]: inactive
- Efficacy, viability, cherry pick confirmation [2]: inactive
- Efficacy, viability, primary screening [2]: inactive
- EC50, p53 activation, cherry pick confirmation [3]: inactive
- EC50, p53 activation, primary screening [3]: inactive
- Efficacy, p53 activation, cherry pick confirmation [3]: inactive
- Efficacy, p53 activation, primary screening [3]: inactive
- EC50, p53 activation, cherry pick confirmation [4]: inactive
- EC50, p53 activation, primary screening [4]: inactive
- Efficacy, p53 activation, cherry pick confirmation [4]: inactive
- Efficacy, p53 activation, primary screening [4]: inactive

Compound: C[C@H]1O[C@@H](n2cc(F)c(=O)[nH]c2=O)[C@H](O)[C@@H]1O [Doxifluridine]
- EC50, p53 activation, cherry pick confirmation [1]: inactive
- Efficacy, p53 activation, cherry pick confirmation [1]: inactive
- EC50 [1, 7]: 10.6 µM
- Emax [1, 8]: 83.9%
- EC50, viability, cherry pick confirmation [2]: inactive
- EC50, viability, primary screening [2]: inactive
- Efficacy, viability, cherry pick confirmation [2]: inactive
- Efficacy, viability, primary screening [2]: inactive
- EC50, p53 activation, cherry pick confirmation [3]: inactive
- EC50, p53 activation, primary screening [3]: inactive
- Efficacy, p53 activation, cherry pick confirmation [3]: inactive
- Efficacy, p53 activation, primary screening [3]: inactive
- EC50, p53 activation, cherry pick confirmation [4]: inactive
- EC50, p53 activation, primary screening [4]: inactive
- Efficacy, p53 activation, cherry pick confirmation [4]: inactive
- Efficacy, p53 activation, primary screening [4]: inactive

Compound: O=C(NC(=O)c1c(F)cccc1F)Nc1cc(Cl)c(Oc2ncc(C(F)(F)F)cc2Cl)c(Cl)c1 [Chlorfluazuron]
- p53 activation EC50, cherry pick confirmation [1]: inactive
- p53 activation efficacy, cherry pick confirmation [1]: inactive
- EC50 [1, 9]: 31.4 µM
- Emax [1, 10]: 80.6%
- Viability EC50, cherry pick confirmation [2]: inactive
- Viability EC50, primary screening [2]: inactive
- Viability efficacy, cherry pick confirmation [2]: inactive
- Viability efficacy, primary screening [2]: inactive
- p53 activation EC50, cherry pick confirmation [3]: inactive
- p53 activation EC50, primary screening [3]: inactive
- p53 activation efficacy, cherry pick confirmation [3]: inactive
- p53 activation efficacy, primary screening [3]: inactive
- p53 activation EC50, cherry pick confirmation [4]: inactive
- p53 activation EC50, primary screening [4]: inactive
- p53 activation efficacy, cherry pick confirmation [4]: inactive
- p53 activation efficacy, primary screening [4]: inactive

Compound: CC1=C(C(=O)Nc2ccccc2)S(=O)(=O)CCO1 [Oxycarboxin]
- EC50 [1, 11]: 36.4 µM
- EC50 [1, 9]: 21.2 µM
- Emax [1, 12]: 82.6%
- Emax [1, 10]: 76%
- Viability EC50, cherry pick confirmation [2]: inactive
- Viability EC50, primary screening [2]: inactive
- Viability efficacy, cherry pick confirmation [2]: inactive
- Viability efficacy, primary screening [2]: inactive
- p53 activation EC50, cherry pick confirmation [3]: inactive
- p53 activation EC50, primary screening [3]: inactive
- p53 activation efficacy, cherry pick confirmation [3]: inactive
- p53 activation efficacy, primary screening [3]: inactive
- p53 activation EC50, cherry pick confirmation [4]: inactive
- p53 activation EC50, primary screening [4]: inactive
- p53 activation efficacy, cherry pick confirmation [4]: inactive
- p53 activation efficacy, primary screening [4]: inactive

Compound: CCOC(=O)c1c(N)sc2c1CCN(Cc1ccccc1)C2 [Tinoridine]
- p53 activation EC50 [1]: inactive
- p53 activation efficacy [1]: inactive
- Viability EC50 [2]: inactive
- Viability efficacy [2]: inactive
- p53 activation EC50 [3]: inactive
- p53 activation EC50 [4]: inactive

Compound: N[C@@H](Cc1ccc(N(CCCl)CCCl)cc1)C(=O)O [Melphalan]
- EC50 [1, 11]: 15.6 µM
- EC50 [1, 9]: 17.8 µM
- Emax [1, 12]: 43.3%
- Emax [1, 10]: 46.7%
- Viability EC50, cherry pick confirmation [2]: inactive
- Viability EC50, primary screening [2]: inactive
- Viability efficacy, cherry pick confirmation [2]: inactive
- Viability efficacy, primary screening [2]: inactive
- p53 activation EC50, cherry pick confirmation [3]: inactive
- p53 activation EC50, primary screening [3]: inactive
- p53 activation efficacy, cherry pick confirmation [3]: inactive
- p53 activation efficacy, primary screening [3]: inactive
- p53 activation EC50, cherry pick confirmation [4]: inactive
- p53 activation EC50, primary screening [4]: inactive
- p53 activation efficacy, cherry pick confirmation [4]: inactive
- p53 activation efficacy, primary screening [4]: inactive

Compound: COC(=O)/C=C(\C)OP(=O)(OC)OC [Mevinphos]
- p53 activation EC50 [1]: inactive
- p53 activation efficacy [1]: inactive
- Viability EC50 [2]: inactive
- Viability efficacy [2]: inactive
- p53 activation EC50 [3]: inactive
- EC50 [4]: 7.96 µM
- p53 activation efficacy [4]: 77.3871 and 64.7167

Compound: Nc1nc(Cl)nc2c1ncn2[C@@H]1O[C@H](CO)[C@@H](O)[C@@H]1F [Clofarabine]
- EC50 [1, 11]: 0.335 µM
- EC50 [1, 9]: 0.138 µM
- Emax [1, 12]: 84.9%
- Emax [1, 10]: 93.3%
- Viability EC50, cherry pick confirmation [2]: inactive
- Viability EC50, primary screening [2]: inactive
- Viability efficacy, cherry pick confirmation [2]: inactive
- Viability efficacy, primary screening [2]: inactive
- p53 activation EC50, cherry pick confirmation [3]: inactive
- p53 activation EC50, primary screening [3]: inactive
- p53 activation efficacy, cherry pick confirmation [3]: inactive
- p53 activation efficacy, primary screening [3]: inactive
- p53 activation EC50, cherry pick confirmation [4]: inactive
- p53 activation EC50, primary screening [4]: inactive
- p53 activation efficacy, cherry pick confirmation [4]: inactive
- p53 activation efficacy, primary screening [4]: inactive

Compound: NS(=O)(=O)O [Sulfamic acid]
- p53 activation EC50, cherry pick confirmation [1]: inactive
- p53 activation EC50, primary screening [1]: inactive
- p53 activation efficacy, cherry pick confirmation [1]: inactive
- p53 activation efficacy, primary screening [1]: inactive
- Viability EC50, cherry pick confirmation [2]: inactive
- Viability EC50, primary screening [2]: inactive
- Viability efficacy, cherry pick confirmation [2]: inactive
- Viability efficacy, primary screening [2]: inactive
- p53 activation EC50, cherry pick confirmation [3]: inactive
- p53 activation EC50, primary screening [3]: inactive
- p53 activation efficacy, cherry pick confirmation [3]: inactive
- p53 activation EC50, cherry pick confirmation [4]: inactive
- p53 activation efficacy, cherry pick confirmation [4]: inactive
- EC50 [4, 6]: 24.2 µM

Compound: COP(=S)(OC)Oc1ccc([N+](=O)[O-])cc1 [Methyl parathion]
- p53 activation EC50 [1]: inactive
- p53 activation efficacy [1]: inactive
- Viability EC50 [2]: inactive
- Viability efficacy [2]: inactive
- p53 activation EC50 [3]: inactive
- EC50 ([3]; read-out: p53 activation EC50): 7.98 µM
- EC50 [4]: 9.83 µM
- p53 activation efficacy [4]: 52.7126 and 58.5263

Compound: CCOP(=S)(OCC)Oc1cc(Cl)c(Br)cc1Cl [Bromophos-ethyl]
- EC50, p53 activation, primary screening [1]: inactive
- Efficacy, p53 activation, cherry pick confirmation [1]: 38.522
- Efficacy, p53 activation, primary screening [1]: inactive
- EC50 [1, 13]: 33.2 µM
- EC50, viability, cherry pick confirmation [2]: inactive
- EC50, viability, primary screening [2]: inactive
- Efficacy, viability, cherry pick confirmation [2]: inactive
- Efficacy, viability, primary screening [2]: inactive
- EC50, p53 activation, cherry pick confirmation [3]: inactive
- EC50 [4]: 12.5 µM
- EC50 [4, 13]: 6.31 µM
